Consider 15 compounds from patent US20250144227A1, “C-16 MODIFIED TRIOXACARCINS, ANTIBODY DRUG CONJUGATES, AND USES THEREOF” (President and Fellows of Harvard College, priority 2021, published 2025).

The term GI50 denotes the concentration giving 50% growth inhibition.

Where two headings read alike, the source gives them in different places. Where only a bound is given, the exact number is not on record here.

The test has as its system H460 cells. In words: Cell proliferation assay (resazurin, CellTiter-Blue), H460 cells. The conditions noted are these: for GI50: Homo sapiens; for Effect of the C16 modification on potency (in words): comment on the data of Table 2 (H460 cells). In kind it is cell-based. How it is done: Cell Culture: All cell-culture work was conducted in a class II biological safety cabinet. H460 cells (P2-P4, American Type Culture Collection) were maintained in RPMI-1640 medium supplemented with 10% fetal bovine serum (FBS). HL-60 cells (P2-P4, American Type Cuture Collection) were maintained in RPMI-1640 medium supplemented with 10% FBS. MES-SA/Dx-5 cells (P2-P4, European Collection of Authenticated Cell Cultures) were maintained in McCoy's 5A medium supplemented with 10% FBS.
Cell Proliferation Assay: H460 and MES-SA/Dx-5 cells were grown to approximately 80% confluence, and then were trpysinized, collected, and pelleted by centrifugation (10 min at 183 x g, 24° C.), and HL-60 cells were grown to confluence and directly pelleted by centrifugation (10 min at 183 × g, 24° C.). The supernatant was discarded and the cell pellet was resuspended in 10 mL of fresh medium. A sample was diluted 10-fold in fresh medium, and the concentration of cells was determined using a hemacytometer. The cell suspension was diluted to a concentration of 3000 cells/100 μL. The wells of a pre-sterilized 96-well plate were charged with 100 μL per well of the diluted cellular suspension. The plate was incubated for 24 h at 37° C. (5% CO2).
Stock solutions of each compound in DMSO were diluted with the appropriate media to 100 nM solutions (1% DMSO), which were then serially diluted with the appropriate media, and 100-uL aliquots of the resulting solutions were added to the wells containing adhered cells to achieve final concentrations of 0.39 nM to 50 nM. After incubating at 37° C. for 72 h (5% CO2), 20 μL of resazurin solution (Promega CellTiter-Blue® Cell Viability Assay) was added to each well. After incubating at 37° C. for 2.0 h (5% CO2), the fluorescence (544 nm excitation/590 nm emission) was recorded using a microplate reader (SpectraMax PLUS384) as a measure of viable cells.
Percent growth inhibition was calculated for each well, based upon the following formula: Percent growth inhibition=100×(S−B0)/(Bt−B0) where S is the sample fluorescence, Bt is the average fluorescence of an untreated population of cells at the completion of the assay, and B0 is the average fluorescence of an untreated population of cells at the beginning of the assay.
Each compound was assayed at eight separate concentrations per experiment. The percent inhibition at each concentration was plotted against log (concentration), and a curve fit was generated using the XLfit4 plugin (IDBS Software) running in Excel (Microsoft). GI50 values were computed to reflect the concentrations at which the resulting curves pass through 50% inhibition.
A general note: Resazurin is reduced to fluorescent resorufin, in cell work by metabolically active cells.

Where [1] appears, read: NCI-H460, H460 cells, 72 h incubation, read-out: GI50.

Take `COc1c2c(c(O)c3c4c(c(C)cc13)C1OC3(COCc5ccccc5)OC1[C@@](O)(O4)[C@@]31CO1)C(=O)CCC2` (stereo partly drawn) [compound 17, (2S,2′R,3a′R, 13a′R)-2′-((Benzyloxy)methyl)-12′, 13a′-dihydroxy-7′-methoxy-5′-methyl-3a′ 4′,8′,9′,10′,13a′-hexahydro-2′H,11′H-spiro [oxirane-2,1′-[2,4]epoxyfuro[3,2-b]naphtho[2,3-h]chromen]-11′-one]: the GI50 under setting [1] was > 100 nM.
Same read-out and setting: the figure for `C=CCOCC12OC3c4c(C)cc5c(OC)c6c(c(O)c5c4O[C@](OC)(C3O1)[C@@]21CO1)C(=O)CCC6` (stereo partly drawn) [compound 23, (2R,2′R,3a′R,13a′R)-2′-((Allyloxy)methyl)-12′-hydroxy-7′,13a′-dimethoxy-5′-methyl-3a′,4′,8′,9′,10′,13a′-hexahydro-2′H, 11′H-spiro[oxirane-2,1′-[2,4]epoxyfuro[3,2-b]naphtho[2.3-h]chromen]-11′-one] is 14 nM.
For the compound `COc1c2c(c(O)c3c4c(c(C)cc13)C1OC3(CBr)OC1[C@@](OC)(O4)[C@@]31CO1)C(=O)CCC2` (stereo partly drawn) [compound 32, (2S,2′S,3a′R,13a′R)-2′-(Bromomethyl)-12′-hydroxy-7′,13a′-dimethoxy-5′-methyl-3a′,4′,8′9′,10′,13a′-hexahydro-2′H,11′H-spiro [oxirane-2,1′-[2,4]epoxyfuro[3,2-b]naphtho[2,3-h]chromen]-11′-one], the “Effect of the C16 modification on potency (in words)” value (shortened to “Effect of the C16 modification”) is “good tolerance”. For the same compound, under setting [1], the GI50 stood at 20 nM.
With `CCCOCC12OC3c4c(C)cc5c(OC)c6c(c(O)c5c4O[C@](OC)(C3O1)[C@@]21CO1)C(=O)CCC6` (stereo partly drawn) [compound 22, (2R,2′R,3a′R,13a′R)-12′-Hydroxy-7′,13a′-dimethoxy-5′-methyl-2′-(propoxymethyl)-3a′, 4′,8′,9′,10′,13a′-hexahydro-2′H,11′H-spiro[oxirane-2,1′-[2.4]epoxyfuro[3,2-b]naphtho[2,3-h]chromen]-11′-one], the GI50 under setting [1] was found to be 22 nM.
The same measure, in the same setting: then `COc1c2c(c(O)c3c4c(c(C)cc13)C1OC3(CO)OC1[C@@](O)(O4)[C@@]31CO1)C(=O)CCC2` (stereo partly drawn) [compound 20, (25,2′R,3a′R, 13a′R)-12′, 13a′-dihydroxy-2′-(hydroxymethyl)-7′-methoxy-5′-methyl-3a′, 4′,8′,9′,10′,13a′-hexahydro-2′H,11′H-spiro[oxirane-2,1′-[2.4]epoxyfuro[3,2-b]naphtho[2,3-h]chromen]-11′-one], with 15 nM.
`COc1c2c(c(O)c3c4c(c(C)cc13)C1O[C@]3(CN)O[C@H]1[C@@](OC)(O4)[C@@]31CO1)C(=O)CCC2` (stereo partly drawn) [compound 26, (2R,2′R,3a′R,13a′R)-2′-(Aminomethyl)-12′-hydroxy-7′,13a′-dimethoxy-5′-methyl-3a′, 4′,8′,9′,10′, 13a′-hexahydro-2′H, 11′H-spiro[oxirane-2,1′-[2,4]epoxyfuro[3,2-b]naphtho[2,3-h]chromen]-11′-one]: the “Effect of the C16 modification” value is on record as “good tolerance”. Moreover, the GI50 under setting [1] is 10 nM.
For `COc1c2c(c(O)c3c4c(c(C)cc13)C1O[C@]3(COCc5ccccc5)O[C@H]1[C@@](OC)(O4)[C@@]31CO1)C(=O)CCC2` (stereo partly drawn) [compound 18, (2R,2′R,3a′R, 13a′R)-2′-((Benzyloxy)methyl)-12′-hydroxy-7′,13a′-dimethoxy-5′-methyl-3a′,4′,8′,9′,10′,13a′-hexahydro-2′H, 11′H-spiro [oxirane-2,1′-[2,4]epoxyfuro[3,2-b]naphtho[2,3-h]chromen]-11′-one], the GI50 under setting [1] is > 100 nM.
As to `COc1c2c(c(O)c3c4c(c(C)cc13)C1OC3(COCc5cn(Cc6ccccc6)nn5)OC1[C@@](OC)(O4)[C@@]31CO1)C(=O)CCC2` (stereo partly drawn) [compound 27, (2R,2′R,3a′R,13a′R)-2′-(((1-Benzyl-1H-1,2,3-triazol-4-yl)methoxy)methyl)-12′-hydroxy-7′,13a′-dimethoxy-5′-methyl-3a′,4′,8′,9′, 10′, 13a′-hexahydro-2′H,11′H-spiro [oxirane-2, 1′-[2,4]epoxyfuro[3,2-b]naphtho[2.3-h]chromen]-11′-one], the “Effect of the C16 modification” value is on record as “ablates potency”. For the same compound, the GI50 (NCI-H460, 72 h) was > 100 nM.
The like results for `COc1c2c(c(O)c3c4c(c(C)cc13)[C@@H]1O[C@]3(COP(=O)(O)O)O[C@@H]1[C@@](OC)(O4)[C@@]31CO1)C(=O)CCC2` [compound 35, ((2R,2′R,3a'S,4'S,13a′R)-12′-hydroxy-7′,13a′-dimethoxy-5′-methyl-11′-oxo-3a′,8′,9′,10′,11′,13a′-hexahydro-2′H,4′H-spiro [oxirane-2,1′-[2,4]epoxyfuro[3,2-b]naphtho[2,3-h]chromen]-2′-yl)methyl dihydrogen phosphate] were, in that order, “good tolerance” and 35 nM.
`COc1c2c(c(O)c3c4c(c(C)cc13)C1OC3(CO)OC1[C@@](OC)(O4)[C@@]31CO1)C(=O)CCC2` (stereo partly shown) [compound 19, (2R.2′R,3a′R, 13a′R)-12′-Hydroxy-2′-(hydroxymethyl)-7′,13a′-dimethoxy-5′-methyl-3a′, 4′,8′,9′,10′,13a′-hexahydro-2′H, 11′H-spiro [oxirane-2,1′-[2,4]epoxyfuro[3,2-b]naphtho[2,3-h]chromen]-11′-one] yielded a GI50 (NCI-H460, 72 h) of 5.5 nM.
As to `COc1c2c(c(O)c3c4c(c(C)cc13)C1O[C@]3(CO)O[C@H]1[C@@](OC)(O4)[C@@]3(O)CBr)C(=O)CCC2` (stereo partly drawn) [compound 21, (1R,2R,3aR,13aR)-1-(bromomethyl)-1,12-dihydroxy-2-(hydroxymethyl)-7,13a-dimethoxy-5-methyl-1,2,3a,4,8,9,10,13a-octahydro-11H-2,4-epoxyfuro[3,2-b]naphtho[2,3-h]chromen-11-one], the GI50 under setting [1] turned out to be 8 nM.
On to `COc1c2c(c(O)c3c4c(c(C)cc13)C1OC3(COCC5OC(CO)C(O)C(O)C5O)OC1[C@@](OC)(O4)[C@@]31CO1)C(=O)CCC2` (stereo partly drawn) [compound 29, (2R,13a′R)-12′-Hydroxy-7′,13a′-dimethoxy-5′-methyl-2′-((((2R,3R,4S,5S,6R)-3,4,5-trihydroxy-6-(hydroxymethyl)tetrahydro-2H-pyran-2-yl)oxy)methyl)-3a′ 4′,8′,9′, 10′,13a′-hexahydro-2′H. 11′H-spiro [oxirane-2,1′-[2,4]epoxyfuro[3,2-b]naphtho[2,3-h]chromen]-11′-one], for which the “Effect of the C16 modification” value was “poorly tolerated”.
As to `COc1c2c(c(O)c3c4c(c(C)cc13)C1OC3(CO[C@@H]5O[C@H](COC(C)=O)[C@@H](OC(C)=O)[C@H](OC(C)=O)[C@H]5OC(C)=O)OC1[C@@](OC)(O4)[C@@]31CO1)C(=O)CCC2` (stereo partly drawn) [compound 28, (2R,3R,4S,5R,6R)-2-(Acetoxymethyl)-6-(((2R,13a′R)-12′-hydroxy-7′,13a′-dimethoxy-5′-methyl-11′-oxo-3a′,8′,9′,10′,11′,13a′-hexahydro-2′H,4′H-spiro [oxirane-2,1′-[2,4]epoxyfuro[3,2-b]naphtho[2,3-h]chromen]-2′-yl)methoxy) tetrahydro-2H-pyran-3,4,5-triyl triacetate], the “Effect of the C16 modification” value is “poorly tolerated”. Moreover, the GI50 (NCI-H460, 72 h) was > 100 nM.
As to `COc1c2c(c(O)c3c4c(c(C)cc13)C1O[C@]3(CN=[N+]=[N-])O[C@H]1[C@@](OC)(O4)[C@@]31CO1)C(=O)CCC2` (stereo partly drawn) [compound 25, (2R,2′R,3a′R,13a′R)-2′-(Azidomethyl)-12′-hydroxy-7′,13a′-dimethoxy-5′-methyl-3a′, 4′,8′,9′,10′,13a′-hexahydro-2′H,11′H-spiro[oxirane-2,1′-[2,4]epoxyfuro[3,2-b]naphtho[2,3-h]chromen]-11′-one], the “Effect of the C16 modification” value is listed as “good tolerance”. The same compound registered a GI50 (NCI-H460, 72 h) of 33 nM.
The matching figures for `COc1c2c(c(O)c3c4c(c(C)cc13)C1OC3(CSC(C)=O)OC1[C@@](OC)(O4)[C@@]31CO1)C(=O)CCC2` (stereo partly drawn) [compound 33, S-(((25,2'S,3a′R,13a′R)-12′-hydroxy-7′,13a′-dimethoxy-5′-methyl-11′-oxo-3a′,8′,9′,10′,11′,13a′-hexahydro-2′H,4′H-spiro [oxirane-2,1′-[2,4]epoxyfuro[3,2-b]naphtho[2,3-h]chromen]-2′-yl)methyl)ethanethioate]: “lack of activity” and 100 nM.
